Data published in patent US12252524B2, “GIP/GLP1 co-agonist compounds” (Eli Lilly and Company, priority 2018, dated 2025).
Numbered stars: 1 amine (or outer) side, 2 acyl side, 3 side chain; on linkers, the order of the positions; unused ones are H or OH. Square brackets hold non-standard residues; d marks the D form. Side chains are listed from the residue outwards. Peptide text beside a SMILES is read from it. * marks the point of attachment. C20 diacid = O=C(O)CCCCCCCCCCCCCCCCCCC(=O)*; γGlu = O=C(O)[C@H](CCC(=O)[*:2])N[*:1]; αMeL = CC(C)C[C@](C)(N)C(=O)O; Orn = NCCC[C@H](N)C(=O)O; AEEA = NCCOCCOCC(=O)O; Aib = CC(C)(N)C(=O)O

Tests used:
[1] = biological target: T1, gastric inhibitory peptide receptor (GIPR) (Homo sapiens, UniProt P48546); assay: cAMP pharmacological functional assay in presence of casein, hGIPR; assay type: cell-based; details: HEK293 cells expressing hGIPR, 0.1% Casein, geometric mean; read-out: hGIPR cAMP Rel EC50 nM (SEM, n)
T1 sequence (P48546 22-466): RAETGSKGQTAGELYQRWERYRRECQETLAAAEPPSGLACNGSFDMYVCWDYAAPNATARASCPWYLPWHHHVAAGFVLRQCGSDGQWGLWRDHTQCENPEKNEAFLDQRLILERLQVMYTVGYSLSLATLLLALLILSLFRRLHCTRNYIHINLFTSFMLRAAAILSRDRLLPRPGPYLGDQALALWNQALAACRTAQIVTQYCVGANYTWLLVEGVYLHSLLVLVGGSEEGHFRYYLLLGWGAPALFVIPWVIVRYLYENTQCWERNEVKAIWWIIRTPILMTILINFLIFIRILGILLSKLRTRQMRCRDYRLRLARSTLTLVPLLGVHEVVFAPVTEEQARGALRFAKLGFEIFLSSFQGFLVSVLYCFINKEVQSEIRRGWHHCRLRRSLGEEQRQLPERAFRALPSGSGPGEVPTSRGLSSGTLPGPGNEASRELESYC

human GLP-1R [2] = biological target: T2, human GLP-1R (Homo sapiens, UniProt P43220); assay: [125I]-GLP-1 binding (SPA), human GLP-1 receptor; design: expressed in transfected cells; crude membranes; details: read-out: hGLP1R Ki, (nM) (SEM, n)
T2 sequence (P43220 24-463): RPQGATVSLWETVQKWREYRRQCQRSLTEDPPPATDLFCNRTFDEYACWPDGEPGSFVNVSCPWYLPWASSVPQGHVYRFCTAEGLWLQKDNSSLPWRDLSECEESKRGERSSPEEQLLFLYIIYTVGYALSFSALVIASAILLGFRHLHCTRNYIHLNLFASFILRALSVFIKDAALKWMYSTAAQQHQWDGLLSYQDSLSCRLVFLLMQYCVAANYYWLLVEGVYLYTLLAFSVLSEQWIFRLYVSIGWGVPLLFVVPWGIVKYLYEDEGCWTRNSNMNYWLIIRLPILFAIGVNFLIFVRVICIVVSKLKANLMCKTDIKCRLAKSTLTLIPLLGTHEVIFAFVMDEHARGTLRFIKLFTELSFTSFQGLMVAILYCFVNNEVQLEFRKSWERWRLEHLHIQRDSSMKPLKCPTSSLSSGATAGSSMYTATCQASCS
Procedure, shortened: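 Ki values are geometric means with SEM over independent replicates on different days, derived from IC50s fitted by four-parameter nonlinear regression. The assay used crude cell membranes in HEPES buffer, pH 7.4, containing CaCl2, MgCl2, bacitracin and TWEEN-20.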

[3] = biological target: human GLP-1 receptor (GLP-1R) (Homo sapiens, UniProt P43220); assay: cAMP pharmacological functional assay in presence of casein, hGLP-1R; assay type: cell-based; details: HEK293 cells expressing hGLP-1R, 0.1% Casein, geometric mean; read-out: hGLP1R cAMP Rel EC50 nM (SEM, n)
human GLP-1 receptor (GLP-1R), sequence (P43220 24-463): as above

human GLP-1R [4] = biological target: T2, human GLP-1R; assay: GLP-1R HEK293 cell membrane [35S]GTPγS binding assay; assay type: biochemical; design: expressed in transfected cells; host or cells: HEK293 cells expressing human GLP-1R; membranes; details: HEK293 cell membranes expressing human GLP-1R, [35S]GTPγS binding; read-out: hGLP1R GTPgS Rel EC50 nM (SEM, n)
Procedure, shortened: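 Membranes from HEK293 cells expressing the receptor incubated with peptide and […] [35S]GTPγS in HEPES pH 7.4 buffer with NaCl, MgCl2, saponin and BSA, 30 min at room temperature. Gαs-bound label captured by anti-Gαs antibody/SPA beads and counted; EC50 from four-parameter logistic fit.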

human Gcg receptor = biological target: T3, human Gcg receptor (Homo sapiens, UniProt P47871); assay: [125I]-Glucagon binding (SPA), human Gcg receptor; details: read-out: hGLcgR Ki, nM (SEM, n)
T3 construct: expressed in transfected cells; crude membranes
T3 sequence (P47871 26-477): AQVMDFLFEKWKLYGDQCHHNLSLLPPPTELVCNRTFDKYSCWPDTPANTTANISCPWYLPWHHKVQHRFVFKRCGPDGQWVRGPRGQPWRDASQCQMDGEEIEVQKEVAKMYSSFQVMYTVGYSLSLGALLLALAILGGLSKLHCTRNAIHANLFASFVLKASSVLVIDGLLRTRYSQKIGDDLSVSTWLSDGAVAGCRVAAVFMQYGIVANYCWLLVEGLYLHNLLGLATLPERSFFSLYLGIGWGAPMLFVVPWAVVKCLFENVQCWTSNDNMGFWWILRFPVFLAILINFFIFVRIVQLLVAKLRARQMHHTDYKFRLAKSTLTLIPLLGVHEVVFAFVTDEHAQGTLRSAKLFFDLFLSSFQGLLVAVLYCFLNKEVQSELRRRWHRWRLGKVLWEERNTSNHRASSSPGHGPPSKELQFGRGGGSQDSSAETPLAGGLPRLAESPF
Procedure, shortened: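 Cell pellets were lysed in hypotonic Tris buffer, pH 7.5, homogenized, and spun at low then high speed to give crude membranes. Ki was derived from the fitted IC50.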

human GLP-1R [5] = biological target: T2, human GLP-1R; assay: GLP-1R CHO cell β-arrestin recruitment assay; assay type: cell-based; design: host or cells: CHO-K1 PathHunter cells, assay-ready frozen; details: for EC50: CHO-K1 cells, PathHunter β-arrestin-2 recruitment, 0.1% casein, read-out: hGLP1R B-Arrestin2 Rel EC50 uM (SEM, n); for hGLP1R B-Arrestin2 % Top: normalized to GLP-1 maximum control
Procedure, shortened: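 PathHunter CHO-K1 cells with ProLink-tagged human GLP-1R and enzyme-acceptor-tagged β-arrestin-2 treated with serially diluted peptides in assay buffer containing 0.1% hydrolyzed casein, 90 min at 37 °C.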

human GIP receptor = biological target: T4, human GIP receptor (Homo sapiens, UniProt P48546); assay: [125I]-GIP binding (SPA), human GIP receptor; details: read-out: hGIPR Ki, nM (SEM, n)
T4 construct: expressed in transfected cells; crude membranes
T4 sequence (P48546 22-466): T1 sequence (P48546 22-466)

Compound | EC50 [1] | Ki (human GLP-1R [2]) | EC50 [3] | EC50 (human GLP-1R [4]) | Ki (human Gcg receptor) | EC50 (human GLP-1R [5]) | hGLP1R B-Arrestin2 % Top (human GLP-1R [5]) | Ki (human GIP receptor)
CC[C@H](C)[C@H](NC(=O)[C@H](CC(C)C)NC(=O)[C@H](Cc1ccc(O)cc1)NC(=O)[C@H](CCC(=O)O)NC(=O)[C@@H](NC(=O)[C@H](Cc1ccccc1)NC(=O)[C@H](CCC(=O)O)NC(=O)C(C)(C)NC(=O)[C@H](CCC(N)=O)NC(=O)[C@H](C)NC(=O)[C@H](CCCCNC(=O)COCCOCCNC(=O)COCCOCCNC(=O)CC[C@H](NC(=O)CCCCCCCCCCCCCCCCCCC(=O)O)C(=O)O)NC(=O)[C@H](CCCN)NC(=O)[C@H](CC(=O)O)NC(=O)[C@H](CC(C)C)NC(=O)[C@](C)(CC(C)C)NC(=O)[C@@H](NC(=O)[C@H](CO)NC(=O)[C@H](Cc1ccc(O)cc1)NC(=O)[C@H](CC(=O)O)NC(=O)[C@H](CO)NC(=O)[C@@H](NC(=O)[C@H](Cc1ccccc1)NC(=O)[C@@H](NC(=O)CNC(=O)[C@H](CCC(=O)O)NC(=O)C(C)(C)NC(=O)[C@H](N)Cc1ccc(O)cc1)[C@@H](C)O)[C@@H](C)O)[C@@H](C)CC)[C@@H](C)CC)C(=O)N[C@@H](C)C(=O)NCC(=O)NCC(=O)N1CCC[C@H]1C(=O)N[C@@H](CO)C(=O)N[C@@H](CO)C(=O)NCC(=O)N[C@@H](C)C(=O)N1CCC[C@H]1C(=O)N1CCC[C@H]1C(=O)N1CCC[C@H]1C(=O)N[C@@H](CO)C(N)=O [Example 349] (H-[dY][Aib]EGTFTSDYSI[αMeL]LD[Orn]K([AEEA-AEEA-γGlu-C20 diacid])AQ[Aib]EFIEYLIAGGPSSGAPPPS-NH2) | 0.117 nM | 1.72 nM | 0.121 nM | 0.464 nM | > 1060 nM | 0.0151 µM | 18.4% | 0.08 nM
CC[C@H](C)[C@H](NC(=O)[C@H](CC(C)C)NC(=O)[C@H](Cc1ccc(O)cc1)NC(=O)[C@@H](CCC(=O)O)NC(=O)[C@@H](NC(=O)[C@H](Cc1ccccc1)NC(=O)[C@H](C)NC(=O)C(C)(C)NC(=O)[C@H](CCC(N)=O)NC(=O)[C@H](C)NC(=O)[C@H](CCCCNC(=O)COCCOCCNC(=O)COCCOCCNC(=O)CC[C@H](NC(=O)CCCCCCCCCCCCCCCCCCC(=O)O)C(=O)O)NC(=O)[C@H](CCCCN)NC(=O)[C@H](CC(=O)O)NC(=O)[C@H](CC(C)C)NC(=O)[C@](C)(CC(C)C)NC(=O)[C@@H](NC(=O)[C@H](CO)NC(=O)[C@H](Cc1ccc(O)cc1)NC(=O)[C@H](CC(=O)O)NC(=O)[C@H](CO)NC(=O)[C@@H](NC(=O)[C@H](Cc1ccccc1)NC(=O)[C@@H](NC(=O)CNC(=O)[C@H](CCC(=O)O)NC(=O)C(C)(C)NC(=O)[C@H](N)Cc1ccc(O)cc1)[C@@H](C)O)[C@@H](C)O)[C@@H](C)CC)[C@@H](C)CC)C(=O)N[C@@H](C)C(=O)NCC(=O)NCC(=O)N1CCC[C@H]1C(=O)N[C@@H](CO)C(=O)N[C@@H](CO)C(=O)NCC(=O)N[C@@H](C)C(=O)N1CCC[C@H]1C(=O)N1CCC[C@H]1C(=O)N1CCC[C@H]1C(=O)N[C@@H](CO)C(N)=O [Example 352] (H-[dY][Aib]EGTFTSDYSI[αMeL]LDKK([AEEA-AEEA-γGlu-C20 diacid])AQ[Aib]AFI[dE]YLIAGGPSSGAPPPS-NH2) | 0.127 nM | 3.03 nM | 0.142 nM | 0.552 nM | > 1030 nM | 0.00421 µM | 17.4% | 0.0726 nM
CC[C@H](C)[C@H](NC(=O)[C@H](CC(C)C)NC(=O)[C@H](Cc1ccc(O)cc1)NC(=O)[C@@H](CCC(=O)O)NC(=O)[C@@H](NC(=O)[C@H](Cc1ccccc1)NC(=O)[C@H](CCC(=O)O)NC(=O)C(C)(C)NC(=O)[C@H](CCC(N)=O)NC(=O)[C@H](C)NC(=O)[C@H](CCCCNC(=O)COCCOCCNC(=O)COCCOCCNC(=O)CC[C@H](NC(=O)CCCCCCCCCCCCCCCCCCC(=O)O)C(=O)O)NC(=O)[C@H](CCCN)NC(=O)[C@H](CC(=O)O)NC(=O)[C@H](CC(C)C)NC(=O)[C@](C)(CC(C)C)NC(=O)[C@@H](NC(=O)[C@H](CO)NC(=O)[C@H](Cc1ccc(O)cc1)NC(=O)[C@H](CC(=O)O)NC(=O)[C@H](CO)NC(=O)[C@@H](NC(=O)[C@H](Cc1ccccc1)NC(=O)[C@@H](NC(=O)CNC(=O)[C@H](CCC(=O)O)NC(=O)C(C)(C)NC(=O)[C@H](N)Cc1ccc(O)cc1)[C@@H](C)O)[C@@H](C)O)[C@@H](C)CC)[C@@H](C)CC)C(=O)N[C@@H](C)C(=O)NCC(=O)NCC(=O)N1CCC[C@H]1C(=O)N[C@@H](CO)C(=O)N[C@@H](CO)C(=O)NCC(=O)N[C@@H](C)C(=O)N1CCC[C@H]1C(=O)N1CCC[C@H]1C(=O)N1CCC[C@H]1C(=O)N[C@@H](CO)C(N)=O [Example 354] (H-[dY][Aib]EGTFTSDYSI[αMeL]LD[Orn]K([AEEA-AEEA-γGlu-C20 diacid])AQ[Aib]EFI[dE]YLIAGGPSSGAPPPS-NH2; N-terminus assumed) | 0.233 nM | 7.85 nM | 0.54 nM | 0.967 nM | > 953 nM | 0.255 µM | 22.7% | 0.175 nM
CC[C@H](C)[C@H](NC(=O)[C@H](CC(C)C)NC(=O)[C@H](Cc1ccc(O)cc1)NC(=O)[C@H](CCC(=O)O)NC(=O)[C@@H](NC(=O)[C@H](Cc1ccccc1)NC(=O)[C@H](C)NC(=O)C(C)(C)NC(=O)[C@H](CCC(N)=O)NC(=O)[C@H](C)NC(=O)[C@H](CCCCNC(=O)COCCOCCNC(=O)COCCOCCNC(=O)CC[C@H](NC(=O)CCCCCCCCCCCCCCCCCCC(=O)O)C(=O)O)NC(=O)[C@H](CCCN)NC(=O)[C@H](CC(=O)O)NC(=O)[C@H](CC(C)C)NC(=O)[C@](C)(CC(C)C)NC(=O)[C@@H](NC(=O)[C@H](CO)NC(=O)[C@H](Cc1ccc(O)cc1)NC(=O)[C@H](CC(=O)O)NC(=O)[C@H](CO)NC(=O)[C@@H](NC(=O)[C@H](Cc1ccccc1)NC(=O)[C@@H](NC(=O)CNC(=O)[C@H](CCC(=O)O)NC(=O)C(C)(C)NC(=O)[C@H](N)Cc1ccc(O)cc1)[C@@H](C)O)[C@@H](C)O)[C@@H](C)CC)C(C)C)C(=O)N[C@@H](C)C(=O)NCC(=O)NCC(=O)N1CCC[C@H]1C(=O)N[C@@H](CO)C(=O)N[C@@H](CO)C(=O)NCC(=O)N[C@@H](C)C(=O)N1CCC[C@H]1C(=O)N1CCC[C@H]1C(=O)N1CCC[C@H]1C(=O)N[C@@H](CO)C(N)=O [Example 358] (H-[dY][Aib]EGTFTSDYSI[αMeL]LD[Orn]K([AEEA-AEEA-γGlu-C20 diacid])AQ[Aib]AFVEYLIAGGPSSGAPPPS-NH2; N-terminus assumed) | 0.183 nM | 1.37 nM | 0.117 nM | 0.414 nM | 915 nM | 0.00938 µM | 21.4% | 0.0636 nM
